Assay results taken from patent publication US9867833B2, “Serine/threonine kinase inhibitors” (GENENTECH, INC., priority 2013, dated 2018).

Molecular target: human ERK-2 (Mitogen Activated Kinase 1) (Homo sapiens (Human), UniProt P28482)
Experiment: ERK-2 Enzymatic Assay
Type: biochemical
Details: human ERK-2 enzyme 5 nM, 25 μM ATP, S/T17 peptide substrate; isomer = configuration of CR2R3
Method in brief: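 Recombinant human ERK-2 (aa 8-360, N-terminal 6-His, E. coli) with 3-fold serially diluted compound. Per-well rates from linear fits converted to percent of control; IC50 by four-parameter fit.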

Chain of human ERK-2 (Mitogen Activated Kinase 1) (P28482 8-360): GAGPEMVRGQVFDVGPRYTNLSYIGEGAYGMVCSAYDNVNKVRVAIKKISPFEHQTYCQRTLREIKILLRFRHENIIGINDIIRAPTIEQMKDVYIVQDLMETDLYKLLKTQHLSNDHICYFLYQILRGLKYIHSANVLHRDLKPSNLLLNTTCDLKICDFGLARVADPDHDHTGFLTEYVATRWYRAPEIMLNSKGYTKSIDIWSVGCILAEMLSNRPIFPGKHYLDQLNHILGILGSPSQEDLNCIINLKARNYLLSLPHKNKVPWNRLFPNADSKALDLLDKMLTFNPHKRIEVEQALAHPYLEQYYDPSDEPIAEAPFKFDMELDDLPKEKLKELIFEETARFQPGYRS

| IC50 [nM] | Compound |
| --- | --- |
| < 0.02 | CN1C[C@H](Cc2ccc(F)cc2)c2nnc3cc(-c4ccnc(Nc5ccnn5C)n4)cc1n23 [(S) I-31, 4-(3-(4-fluorobenzyl)-5-methyl-4,5-dihydro-3H-1,2,2a^1,5-tetraazaacenaphthylen-7-yl)-N-(1-methyl-1H-pyrazol-5-yl)pyrimidin-2-amine] |
| 0.111 | Cn1nccc1Nc1cc(-c2cc3n4c(nnc4c2)C(Cc2ccc(F)c(Cl)c2)CO3)ccn1 (stereo not shown) [Compound I-83, 4-(3-(3-Chloro-4-fluorobenzyl)-3,4-dihydro-5-oxa-1,2,2a^1-triazaacenaphthylen-7-yl)-N-(1-methyl-1H-pyrazol-5-yl)pyridin-2-amine] |
| < 0.02 | Cn1nccc1Nc1nccc(-c2cc3n4c(nnc4c2)[C@@H](COCc2ccccc2)CCO3)n1 [(S) I-29, 4-(9-((benzyloxy)methyl)-8,9-dihydro-7H-6-oxa-1,2,2a^1-triazabenzo[cd]azulen-4-yl)-N-(1-methyl-1H-pyrazol-5-yl)pyrimidin-2-amine] |
| 0.794 | COc1cccc(C[C@@H]2COc3cc(-c4ccnc(Nc5ccnn5C)c4)cc4nnc2n34)c1 [(S) I-97, 4-(3-(3-methoxybenzyl)-3,4-dihydro-5-oxa-1,2,2a^1-triazaacenaphthylen-7-yl)-N-(1-methyl-1H-pyrazol-5-yl)pyridin-2-amine] |
| 0.113 | CN1C(=O)N(Cc2cc(F)cc(F)c2)c2nnc3cc(-c4ccnc(Nc5ccnn5C)n4)cc1n23 [Compound I-99, 3-(3,5-difluorobenzyl)-5-methyl-7-(2-((1-methyl-1H-pyrazol-5-yl)amino)pyrimidin-4-yl)-3H-1,2,2a^1,3,5-pentaazaacenaphthylen-4(5H)-one] |
| < 0.02 | COc1ccc(C[C@@H]2CC(=O)N(C)c3cc(-c4ccnc(Nc5ccnn5C)c4)cc4nnc2n34)c(F)c1 [(R) I-74, 9-(2-fluoro-4-methoxybenzyl)-6-methyl-4-(2-((1-methyl-1H-pyrazol-5-yl)amino)pyridin-4-yl)-8,9-dihydro-1,2,2a^1,6-tetraazabenzo[cd]azulen-7(6H)-one] |
| 2.55 | Cn1nccc1Nc1cc(-c2cc3n4c(nnc4c2)C(Cc2ccccc2Cl)CCO3)ccn1 (single isomer, unassigned) [(R) I-30, 4-(9-(2-chlorobenzyl)-8,9-dihydro-7H-6-oxa-1,2,2a^1-triazabenzo[cd]azulen-4-yl)-N-(1-methyl-1H-pyrazol-5-yl)pyridin-2-amine] |
| < 0.02 | COc1ccc(C[C@H]2CNc3cc(-c4ccnc(Nc5ccnn5C)n4)cc4nnc2n34)cc1 [(S) I-11, 4-(3-(4-methoxybenzyl)-4,5-dihydro-3H-1,2,2a^1,5-tetraazaacenaphthylen-7-yl)-N-(1-methyl-1H-pyrazol-5-yl)pyrimidin-2-amine] |
| < 0.02 | Cn1nccc1Nc1cc(-c2cc3n4c(nnc4c2)[C@@H](Cn2cc(C(F)(F)F)cn2)CCO3)ccn1 [(R) I-89, N-(1-methyl-1H-pyrazol-5-yl)-4-(9-((4-(trifluoromethyl)-1H-pyrazol-1-yl)methyl)-8,9-dihydro-7H-6-oxa-1,2,2a^1-triazabenzo[cd]azulen-4-yl)pyridin-2-amine] |
| 0.707 | Cn1nccc1Nc1cc(-c2cc3n4c(nnc4c2)[C@H](Cc2ccccc2)CN3)ccn1 [(R) I-7, 4-(3-benzyl-4,5-dihydro-3H-1,2,2a^1,5-tetraazaacenaphthylen-7-yl)-N-(1-methyl-1H-pyrazol-5-yl)pyridin-2-amine] |
| < 0.02 | COc1ccc(C[C@H]2CNc3cc(-c4ccnc(Nc5ccnn5C)n4)cc4nnc2n34)cc1F [(S) I-12, 4-(3-(3-fluoro-4-methoxybenzyl)-4,5-dihydro-3H-1,2,2a^1,5-tetraazaacenaphthylen-7-yl)-N-(1-methyl-1H-pyrazol-5-yl)pyrimidin-2-amine] |
| 12.5 | Cn1nccc1Nc1cc(-c2cc3n4c(nnc4c2)C(Cc2ccc(Cl)cc2)CO3)ccn1 (single isomer, unassigned) [(S) I-55, 4-(3-(4-chlorobenzyl)-3,4-dihydro-5-oxa-1,2,2a^1-triazaacenaphthylen-7-yl)-N-(1-methyl-1H-pyrazol-5-yl)pyridin-2-amine] |
| 12.4 | Cn1nccc1Nc1nccc(-c2cc3n4c(nnc4c2)[C@H](Cc2ccc(F)c(Cl)c2)CO3)n1 [(S) I-82, 4-(3-(3-chloro-4-fluorobenzyl)-3,4-dihydro-5-oxa-1,2,2a^1-triazaacenaphthylen-7-yl)-N-(1-methyl-1H-pyrazol-5-yl)pyrimidin-2-amine] |
| 1.55 | Cn1nccc1Nc1cc(-c2cc3n4c(ncc4c2)[C@H](Cc2ccc(Cl)cc2)CN3)ccn1 [(R) I-8, 4-(3-(4-chlorobenzyl)-4,5-dihydro-3H-1,2,2a^1,5-tetraazaacenaphthylen-7-yl)-N-(1-methyl-1H-pyrazol-5-yl)pyridin-2-amine] |
| 1.85 | CC(C)C[C@@H]1CCOc2cc(-c3ccnc(Nc4ccnn4C)n3)cc3nnc1n23 [(R) I-107, 4-(9-isobutyl-8,9-dihydro-7H-6-oxa-1,2,2a^1-triazabenzo[cd]azulen-4-yl)-N-(1-methyl-1H-pyrazol-5-yl)pyrimidin-2-amine] |
| 119 | CN1C(=O)C[C@@H](C2CC2)c2nnc3cc(-c4ccnc(Nc5ccnn5C)n4)cc1n23 [(S) I-65, 9-cyclopropyl-6-methyl-4-(2-((1-methyl-1H-pyrazol-5-yl)amino)pyrimidin-4-yl)-8,9-dihydro-1,2,2a^1,6-tetraazabenzo[cd]azulen-7(6H)-one] |

| IC50 [nM] | Compound |
| --- | --- |
| < 0.02 | CN1C[C@H](Cc2ccccc2)c2nnc3cc(-c4ccnc(Nc5ccnn5C)n4)cc1n23 [(S) I-9, 4-(3-benzyl-5-methyl-4,5-dihydro-3H-1,2,2a^1,5-tetraazaacenaphthylen-7-yl)-N-(1-methyl-1H-pyrazol-5-yl)pyrimidin-2-amine] |
| 2.95 | Cn1nccc1Nc1nccc(-c2cc3n4c(nnc4c2)[C@H](Oc2ccc(F)cc2)CCO3)n1 [(R) I-66, 4-(9-(4-fluorophenoxy)-8,9-dihydro-7H-6-oxa-1,2,2a^1-triazabenzo[cd]azulen-4-yl)-N-(1-methyl-1H-pyrazol-5-yl)pyrimidin-2-amine] |
| < 0.02 | COc1ccc(C[C@H]2CNc3cc(-c4ccnc(Nc5ccnn5C)n4)cc4nnc2n34)cn1 [(S) I-24, 4-(3-((6-methoxypyridin-3-yl)methyl)-4,5-dihydro-3H-1,2,2a^1,5-tetraazaacenaphthylen-7-yl)-N-(1-methyl-1H-pyrazol-5-yl)pyrimidin-2-amine] |
| 0.03 | Cn1nccc1Nc1cc(-c2cc3n4c(nnc4c2)[C@@H](Cc2ccc(F)c(F)c2)CO3)ccn1 [(R) I-54, 4-(3-(3,4-difluorobenzyl)-3,4-dihydro-5-oxa-1,2,2a^1-triazaacenaphthylen-7-yl)-N-(1-methyl-1H-pyrazol-5-yl)pyridin-2-amine] |
| 0.751 | Cn1nccc1Nc1nccc(-c2cc3n4c(nnc4c2)C(C2CC2)CO3)n1 (stereo not shown) [Compound I-95, 4-(3-cyclopropyl-3,4-dihydro-5-oxa-1,2,2a^1-triazaacenaphthylen-7-yl)-N-(1-methyl-1H-pyrazol-5-yl)pyrimidin-2-amine] |
| 0.026 | CCC[C@H]1CCOc2cc(-c3ccnc(Nc4ccnn4C)c3)cc3nnc1n23 [(S) I-103, N-(1-methyl-1H-pyrazol-5-yl)-4-(9-propyl-8,9-dihydro-7H-6-oxa-1,2,2a^1-triazabenzo[cd]azulen-4-yl)pyridin-2-amine] |
| 0.149 | Cn1nccc1Nc1cc(-c2cc3n4c(nnc4c2)C(Cc2cccc(Cl)c2)CO3)ccn1 (stereo not shown) [Compound I-96, 4-(3-(3-chlorobenzyl)-3,4-dihydro-5-oxa-1,2,2a^1-triazaacenaphthylen-7-yl)-N-(1-methyl-1H-pyrazol-5-yl)pyridin-2-amine] |
| 7.12 | COc1ccc(C[C@@H]2COc3cc(-c4ccnc(Nc5ccnn5C)n4)cc4nnc2n34)cc1 [(S) I-50, 4-(3-(4-methoxybenzyl)-3,4-dihydro-5-oxa-1,2,2a^1-triazaacenaphthylen-7-yl)-N-(1-methyl-1H-pyrazol-5-yl)pyrimidin-2-amine] |
| 0.02 | Cn1nccc1Nc1nccc(-c2cc3n4c(nnc4c2)[C@@H](Cc2ccccc2)CN3)n1 [(S) I-2, (S)-4-(3-benzyl-4,5-dihydro-3H-1,2,2a^1,5-tetraazaacenaphthylen-7-yl)-N-(1-methyl-1H-pyrazol-5-yl)pyrimidin-2-amine] |
| 0.109 | Cn1nccc1Nc1nccc(-c2cc3n4c(nnc4c2)[C@H](COCc2ccccc2)CCO3)n1 [(R) I-29, 4-(9-((benzyloxy)methyl)-8,9-dihydro-7H-6-oxa-1,2,2a^1-triazabenzo[cd]azulen-4-yl)-N-(1-methyl-1H-pyrazol-5-yl)pyrimidin-2-amine] |
| 2.95 | Cn1nccc1Nc1nccc(-c2cc3n4c(nnc4c2)C(Oc2ccc(F)cc2)CCO3)n1 [(R) I-108, 4-(9-(4-fluorophenoxy)-8,9-dihydro-7H-6-oxa-1,2,2a^1-triazabenzo[cd]azulen-4-yl)-N-(1-methyl-1H-pyrazol-5-yl)pyrimidin-2-amine] |
| 44 | COc1ccc(C[C@H]2CC(=O)N(C)c3cc(-c4ccnc(Nc5ccnn5C)n4)cc4nnc2n34)cc1 [(S) I-62, 9-(4-methoxybenzyl)-6-methyl-4-(2-((1-methyl-1H-pyrazol-5-yl)amino)pyrimidin-4-yl)-8,9-dihydro-1,2,2a^1,6-tetraazabenzo[cd]azulen-7(6H)-one] |
| 4.28 | CC(C)C[C@H]1NC(=O)N(C)c2cc(-c3ccnc(Nc4ccnn4C)c3)cc3nnc1n23 [Compound I-25, (R)-9-isobutyl-6-methyl-4-(2-((1-methyl-1H-pyrazol-5-yl)amino)pyridin-4-yl)-8,9-dihydro-1,2,2a^1,6,8-pentaazabenzo[cd]azulen-7(6H)-one] |
| < 0.02 | Clc1cnn(C[C@H]2CCOc3cc(-c4ccnc(NC5CCOCC5)n4)cc4nnc2n34)c1 [(R) I-110, 4-(9-((4-chloro-1H-pyrazol-1-yl)methyl)-8,9-dihydro-7H-6-oxa-1,2,2a^1-triazabenzo[cd]azulen-4-yl)-N-(tetrahydro-2H-pyran-4-yl)pyrimidin-2-amine] |
| < 0.02 | COc1cccc(C[C@H]2COc3cc(-c4ccnc(Nc5ccnn5C)c4)cc4nnc2n34)c1 [(R) I-97, 4-(3-(3-methoxybenzyl)-3,4-dihydro-5-oxa-1,2,2a^1-triazaacenaphthylen-7-yl)-N-(1-methyl-1H-pyrazol-5-yl)pyridin-2-amine] |
